Entries after “also recorded” stand apart in the source; their conditions may differ. Marks after values point to notes of the source that are not given here.
Key:
[1] = Randomized controlled trial in (db-/db-) mice, topical to flank: body weight change; type: in vivo, mouse; conditions: 21-day study; for Absolute weight change / Relative weight change: 5 mM topical, 0.1 cc to flank daily
Procedure: (§1) A randomized controlled trial was conducted on (db-/db-) mice. Mice six weeks old were prospectively randomized into groups and assigned to the following treatment conditions (n=5 animals per group): [table] At the start of the study, hair on the right flank of each animal was clipped and depilated. Animals were kept in identical conditions and fed ab libitum. Animals were weighed daily. Following 21 consecutive days of treatment, samples of skin and adjacent fat were obtained from the treated flanks, fixed in formalin, and stained with hematoxylin and eosin for histologic examination.

[2] = tested on: dorsocervical fat pad; experiment: Randomized double-blind study in HIV lipodystrophy subjects, dorsocervical fat by US/CT; type: in vivo; conditions: human, e.g. 0.03% in transdermal vehicle once a day, e.g. after 3 months
Source text: The following experiment describes a randomized, double-blind study in human subjects to test whether locally administered Tafluprost reduces fat in the dorsocervical fat pad of HIV-seropositive patients on antiretroviral therapy who are suffering from HIV lipodystrophy. Eligible subjects (for example, n=40) with HIV lipodystrophy and abnormal accumulation of fat on the dorsal neck are entered into a randomized double-blind study. Subjects are randomized in 1:1 fashion to receive either Tafluprost, for example, 0.03%, in a suitable transdermal vehicle, or vehicle alone. The vehicle is, for example, Lipoderm® (PCCA, Houston, Tex.). Unit-dose syringes (for example, 0.5 ml per syringe) are furnished to subjects by a study pharmacist; syringes are unlabeled as to the presence of Tafluprost or vehicle. Subjects are instructed to apply, once a day, the contents of one syringe to the affected area on the back of the neck. Serial ultrasound (US) and/or computed tomography (CT) scans are conducted at the beginning of the study and then at monthly intervals. Treatment continues for 6 months.

[3] = tested on: human preadipocytes; conditions: human preadipocytes in primary cell culture; cited from earlier work
[4] = tested on: adipose tissue and adipocytes; experiment: Randomized controlled trial in (db-/db-) mice: histologic examination of treated skin and subcutaneous fat; type: in vivo, mouse; conditions: treated flank, after 21 days of 5 mM topical treatment
Procedure: as §1

[5] = tested on: peroxisome proliferator-activated receptor-gamma (PPARγ), CCAAT-enhancer-binding protein α (C/EBPα), and lipoprotein lipase; conditions: human preadipocytes; no statistical differences; cited from earlier work

In the case of `CC(C)OC(=O)CCC/C=C\C[C@@H]1[C@@H](/C=C/C(F)(F)COc2ccccc2)[C@H](O)C[C@@H]1O` [Tafluprost], the Absolute weight change [1] is reported as −2.4* g, the Relative weight change [1] is reported as −8.2% over Day 0 and the weight loss ([1]; topical) is reported as “about 8 % of baseline body weight”. For the same compound, the “reduction in depth and/or cross-sectional area of dorsocervical fat by serial US or CT, compared to vehicle alone” value [2] was “more reduction in the depth and/or cross-sectional area of dorsocervical fat”, the adipocyte differentiation [3] was 40 % of control and the “adipose thickness and adipocyte size in histologic sections, compared to Vehicle” value [4] was “reduced adipose thickness and adipocyte size; also recorded: inhibited adipose tissue and adipocytes”.
For `CCNC(=O)CCC/C=C\C[C@@H]1[C@@H](/C=C/[C@@H](O)CCc2ccccc2)[C@H](O)C[C@@H]1O` [Bimatoprost], the “inhibition of expression of adipogenic genes PPARγ, C/EBPα and lipoprotein lipase” value [5] is listed as “slightly more inhibition than Tafluprost”, the Absolute weight change [1] is listed as 6.4 g and the Relative weight change [1] is listed as 22.9% over Day 0. The weight gain ([1]; topical) was 23-24 % of baseline body weight, the adipocyte differentiation [3] was 30 % of control and the “adipose thickness and adipocyte size in histologic sections, compared to Vehicle” value [4] was “did not show these effects”.
